Source: article PMC4251066, “Polyyne Hybrid Compounds from Notopterygium incisum with Peroxisome Proliferator-Activated Receptor Gamma Agonistic Effects” (Journal of Natural Products, 2014)

Tests used:
human PPARγ = biological target: T1, human PPARγ (Homo sapiens, UniProt P37231); experiment: PPARγ luciferase reporter gene transactivation in HEK-293 cells; settings: PPARγ-driven luciferase reporter assay, 18 h
T1 sequence (P37231 1-477 isoform P37231-2): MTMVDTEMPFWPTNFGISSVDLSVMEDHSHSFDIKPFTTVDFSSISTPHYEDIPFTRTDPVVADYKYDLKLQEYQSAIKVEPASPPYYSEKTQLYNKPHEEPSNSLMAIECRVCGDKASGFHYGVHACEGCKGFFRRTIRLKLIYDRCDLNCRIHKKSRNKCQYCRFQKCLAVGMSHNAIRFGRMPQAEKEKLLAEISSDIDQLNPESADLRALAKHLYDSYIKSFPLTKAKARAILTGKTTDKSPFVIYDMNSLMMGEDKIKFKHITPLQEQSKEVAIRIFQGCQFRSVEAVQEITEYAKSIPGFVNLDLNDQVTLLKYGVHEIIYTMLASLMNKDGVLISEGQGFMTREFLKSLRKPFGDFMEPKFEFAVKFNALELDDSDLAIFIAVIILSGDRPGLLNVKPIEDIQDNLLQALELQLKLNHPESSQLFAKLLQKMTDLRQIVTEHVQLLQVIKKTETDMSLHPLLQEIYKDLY
Method: For evaluation of PPARγ activation the test compounds were first dissolved in DMSO, divided into aliquots, and frozen at −20 °C until used. In all experiments, DMSO was applied as solvent control, and the final concentration of DMSO was always kept at ≤0.1%. The PPAR luciferase reporter plasmid (tk-PPREx3-luc) was a kind gift from Prof. Ronald M. Evans (Howard Hughes Medical Institute, La Jolla, CA, USA), the plasmid encoding enhanced green fluorescent protein (pEGFP-N1) was supplied by Clontech (Mountain View, CA, USA), and the plasmid encoding human PPARγ (pSG5-PL-hPPAR-γ1) was kindly supplied by Prof. Walter Wahli and Prof. Beatrice Desvergne (Center for Integrative Genomics, University of Lausanne, Switzerland).
The PPARγ luciferase reporter gene assay was performed as previously described.[27] Briefly, HEK-293 cells (ATCC, Manassas, VA, USA) were grown in DMEM with 2 mM glutamine, 10% FBS, 100 U/mL benzylpenicillin, and 100 μg/mL streptomycin. Cells were grown in 10 cm dishes (6 × 10^6 cells/dish) for 18 h and then transfected by the calcium phosphate precipitation method with 4 μg of plasmid encoding human PPARγ (pSG5-PL-hPPAR-γ1), 4 μg of reporter plasmid (tk-PPREx3-luc), and 2 μg of pEGFP-N1 as control for internal normalization.[28] After 6 h, the cells were transferred to 96-well plates (5 × 10^4 cells/well) in DMEM without phenol red supplemented with charcoal-stripped FBS, glutamine, and antibiotics. The cells were treated with different concentrations of the indicated compounds and incubated for 18 h. Cells were then lysed, and the luminescence of the firefly luciferase and the fluorescence of EGFP were quantified with a GeniosPro microplate reader (Tecan, Grödig, Austria). The luminescence was finally normalized to the EGFP-derived fluorescence from each well to account for differences in transfection efficiency or cell number.
Nonlinear regression (with sigmoidal dose response) was used to calculate the EC50 values and maximal fold activation.

[1] = Stability on exposure to heat or sunlight (observed color change); type: physicochemical; settings: elevated temperatures (45 °C) or direct sunlight at ambient temperature for an extended time; visible color change
[2] = system: NO production in LPS/IFNγ-stimulated RAW 264.7 macrophages; experiment: Inhibition of NO production in stimulated RAW 264.7 macrophages (Griess assay); type: cell-based; settings: Mus musculus, RAW264.7, 16 h incubation
Method: RAW 264.7 macrophages were stimulated with lipopolysaccharides (LPS) and interferon-γ (IFNγ) for induction of iNOS gene expression. The effects on NO production were determined by photometric quantification of nitrite accumulation in cell culture supernatants using the Griess assay compared with a sodium nitrite standard curve after 16 h of incubation with the respective sample as described by Baer et al. with slight modifications.[29],[30] Activity is referred to nitrite accumulation of cells treated with LPS/IFN-γ/DMSO (final concentration of 0.1% DMSO serves as solvent control). Test compounds were first dissolved in DMSO and then diluted with PBS to obtain respective concentrations. L-NMMA (N-monomethyl-L-arginine), a known nonselective inhibitor of all NOS isoforms, was used as a positive control. IC50 determination was performed in eight concentrations, each in at least three independent experiments, every time in duplicate.
IC50 values for effects on NO production were calculated with the SigmaPlot program package employing the four-parameter logistic regression model. Statistical differences were evaluated using one-way ANOVA. Differences with a p value < 0.05 were considered significant.

Row | SMILES | EC50 (human PPARγ) | maximal fold activation (human PPARγ) | stability [1] | IC50 [2]
1 | C=C[C@H](C#CC#C[C@@H](O)/C=C\CCCCCCC)O[C@]1(C)CCC[C@]2(C)CC[C@@H](C(C)(C)O)C[C@H]21 [compound 1, Notoether A] | 1.9 µM | 1.6 |  | 
2 | C=C[C@@H](O)C#CC#C[C@H](/C=C\CCCCCCC)O[C@]1(C)CCC[C@]2(C)CC[C@@H](C(C)(C)O)C[C@H]21 [compound 2, Notoether B] | 1.7 µM | 2.0 |  | 
3 | C=C[C@H](C#CC#C[C@@H](O)/C=C\CCCCCCC)O[C@]1(C)CC[C@@H](O)[C@]2(C)CC[C@@H](C(C)C)[C@@H](O)[C@H]21 [compound 3, Notoether C] | 2 µM | 1.6 |  | 
4 | C=C[C@@H](O)C#CC#C[C@H](/C=C\CCCCCCC)OC(=O)/C=C/c1ccc(O)c(OC)c1 [compound 9, Notoincisol A] | 2.3 µM |  | unstable | 14.6 ± 0.7 µM
5 | C=C[C@H]1OCc2cc3cc(OC)c(O)cc3c(C#C[C@@H](O)/C=C\CCCCCCC)c21 [compound 10, Notoincisol B] | 1.7 µM | 2.3 |  | 
